Source: US20220125051A1, “PRE-HARVEST DESICCATION METHOD” (SYNGENTA CROP PROTECTION AG, priority 2019, published 2022)
Where two headings read alike, the source gives them in different places.

Assays:
Assay in all cases: Post-emergence efficacy, Method A
Format in all cases: in vivo
[1] = system: Amaranthus palmeri (AMAPA); details: Amaranthus palmeri, post-emergence, 312 h, evaluated after 13 days
Outline: (§1)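 Plants grown 14 days in glasshouse (24/16 °C, 14 h light, 65% humidity) were sprayed with compound formulated in IF50. The spray was diluted in 0.25% or 1% Empicol ESC70 plus 1% ammonium sulphate. Damage was scored 13 days later on a 0-100 scale, where 100 is total damage.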

[2] = system: Lolium perenne (LOLPE); details: Lolium perenne, post-emergence, 312 h, evaluated after 13 days
Outline: as §1

[3] = system: Chenopodium album (CHEAL); details: Chenopodium album, post-emergence, 312 h, evaluated after 13 days
Outline: as §1

[4] = system: Ipomoea hederacea (IPOHE); details: Ipomoea hederacea, post-emergence, 312 h, evaluated after 13 days
Outline: as §1

[5] = system: Setaria faberi (SETFA); details: Setaria faberi, post-emergence, 312 h, evaluated after 13 days
Outline: as §1

[6] = system: Eleusine indica (ELEIN); details: Eleusine indica, post-emergence, 312 h, evaluated after 13 days
Outline: as §1

[7] = system: Echinochloa crus-galli (ECHCG); details: Echinochloa crus-galli, post-emergence, 312 h, evaluated after 13 days
Outline: as §1

[8] = system: Digitaria sanguinalis (DIGSA); details: Digitaria sanguinalis, post-emergence, 312 h, evaluated after 13 days
Outline: as §1

[9] = system: Euphorbia heterophylla (EPHHL); details: Euphorbia heterophylla, post-emergence, 312 h, evaluated after 13 days
Outline: as §1

[10] = Application rate 500 g/Ha, 100=total damage to plant, 0=no damage to plant, read-out: Control of weed species after post-emergence application, AMAPA
[11] = Application rate 500 g/Ha, 100=total damage to plant, 0=no damage to plant, read-out: Control of weed species after post-emergence application, LOLPE
[12] = Application rate 500 g/Ha, 100=total damage to plant, 0=no damage to plant, read-out: Control of weed species after post-emergence application, CHEAL
[13] = Application rate 500 g/Ha, 100=total damage to plant, 0=no damage to plant, read-out: Control of weed species after post-emergence application, IPOHE
[14] = Application rate 500 g/Ha, 100=total damage to plant, 0=no damage to plant, read-out: Control of weed species after post-emergence application, SETFA
[15] = Application rate 500 g/Ha, 100=total damage to plant, 0=no damage to plant, read-out: Control of weed species after post-emergence application, ELEIN
[16] = Application rate 500 g/Ha, 100=total damage to plant, 0=no damage to plant, read-out: Control of weed species after post-emergence application, ECHCG
[17] = Application rate 500 g/Ha, 100=total damage to plant, 0=no damage to plant, read-out: Control of weed species after post-emergence application, DIGSA
[18] = Application rate 500 g/Ha, 100=total damage to plant, 0=no damage to plant, read-out: Control of weed species after post-emergence application, EPHHL
[19] = Application Rate 500 g/Ha, Method A, read-out: Control of weed species after post-emergence application, AMAPA (100=total damage to plant; 0=no damage to plant)
[20] = Application Rate 500 g/Ha, Method A, read-out: Control of weed species after post-emergence application, LOLPE (100=total damage to plant; 0=no damage to plant)
[21] = Application Rate 500 g/Ha, Method A, read-out: Control of weed species after post-emergence application, CHEAL (100=total damage to plant; 0=no damage to plant)
[22] = Application Rate 500 g/Ha, Method A, read-out: Control of weed species after post-emergence application, IPOHE (100=total damage to plant; 0=no damage to plant)
[23] = Application Rate 500 g/Ha, Method A, read-out: Control of weed species after post-emergence application, SETFA (100=total damage to plant; 0=no damage to plant)
[24] = Application Rate 500 g/Ha, Method A, read-out: Control of weed species after post-emergence application, ELEIN (100=total damage to plant; 0=no damage to plant)
[25] = Application Rate 500 g/Ha, Method A, read-out: Control of weed species after post-emergence application, ECHCG (100=total damage to plant; 0=no damage to plant)
[26] = Application Rate 500 g/Ha, Method A, read-out: Control of weed species after post-emergence application, DIGSA (100=total damage to plant; 0=no damage to plant)
[27] = Application Rate 500 g/Ha, Method A, read-out: Control of weed species after post-emergence application, EPHHL (100=total damage to plant; 0=no damage to plant)

Structure (SMILES) | pest or weed control at 500 g/ha [1, 10] [%] | pest or weed control at 500 g/ha [2, 11] [%] | pest or weed control at 500 g/ha [3, 12] [%] | pest or weed control at 500 g/ha [4, 13] [%] | pest or weed control at 500 g/ha [5, 14] [%] | pest or weed control at 500 g/ha [6, 15] [%] | pest or weed control at 500 g/ha [7, 16] [%] | pest or weed control at 500 g/ha [8, 17] [%] | pest or weed control at 500 g/ha [9, 18] [%] | pest or weed control at 500 g/ha [1, 19] [%] | pest or weed control at 500 g/ha [2, 20] [%] | pest or weed control at 500 g/ha [3, 21] [%] | pest or weed control at 500 g/ha [4, 22] [%] | pest or weed control at 500 g/ha [5, 23] [%] | pest or weed control at 500 g/ha [6, 24] [%] | pest or weed control at 500 g/ha [7, 25] [%] | pest or weed control at 500 g/ha [8, 26] [%] | pest or weed control at 500 g/ha [9, 27] [%]
O=S(=O)(O)CCC[n+]1ccc(-c2cnccn2)cn1 [Compound A10] | 100 | 90 | 100 | 40 | 60 | 50 | 30 | 60 | 100 | – | – | – | – | – | – | – | – | –
CN(C)c1ccnc(-c2cc[n+](CCS(=O)(=O)[O-])nc2)n1 [Compound A16] | 60 | 10 | 30 | 40 | 50 | 70 | 60 | 50 | 50 | – | – | – | – | – | – | – | – | –
O=S(=O)([O-])CC[n+]1ccc(-c2nccc(C3CC3)n2)cn1 [Compound A50] | 100 | 60 | 20 | 50 | 60 | 90 | 40 | 50 | 90 | – | – | – | – | – | – | – | – | –
Cc1cc(Cl)cnc1-c1cc[n+](CCC(=O)O)nc1 [Compound A156] | – | – | – | – | – | – | – | – | – | 30 | 0 | 50 | 10 | 20 | 20 | 10 | 20 | 50
O=C(O)CC[n+]1ccc(-c2ccnc(O)n2)cn1 [Compound A86] | 30 | 10 | 40 | 40 | 40 | 10 | 20 | 30 | 50 | – | – | – | – | – | – | – | – | –
COC(=O)CC[n+]1ccc(-c2ncccn2)cn1 [Compound A54, methyl 3-(4-pyrimidin-2-ylpyridazin-1-ium-1-yl)propanoate 2,2,2-trifluoroacetate] | 90 | 70 | 90 | 10 | 100 | 100 | 90 | 100 | 70 | – | – | – | – | – | – | – | – | –
O=S(=O)([O-])CCC[n+]1ccc(-c2ccc(-c3ccc(Cl)nn3)nn2)cn1 [Compound A168] | – | – | – | – | – | – | – | – | – | 0 | 10 | 40 | 20 | 10 | 20 | 20 | 10 | 30
CC(C)(C[n+]1ccc(-c2ccncn2)cn1)C(=O)O [Compound A167] | – | – | – | – | – | – | – | – | – | 20 | 40 | 70 | 100 | 40 | 80 | 60 | 50 | 90
O=C(O)CC[n+]1ccc(-c2ccncc2F)cn1 [Compound A157] | – | – | – | – | – | – | – | – | – | 100 | 30 | 100 | 60 | 80 | 90 | 80 | 70 | 80
COC(=O)c1cnc(-c2cc[n+](CCS(=O)(=O)[O-])nc2)nc1 [Compound A33] | 100 | 50 | 80 | 40 | 60 | 80 | 40 | 60 | 60 | – | – | – | – | – | – | – | – | –
COc1cc(OC)nc(-c2cc[n+](CCC(=O)[O-])nc2)n1 [Compound A76] | 30 | 30 | 20 | 20 | 40 | 30 | 30 | 20 | 30 | – | – | – | – | – | – | – | – | –
Nc1nccc(-c2cc[n+](CCC(=O)O)nc2)n1 [Compound A160] | – | – | – | – | – | – | – | – | – | 100 | 70 | 100 | 70 | 90 | 80 | 70 | 70 | 90
Nc1cc(-c2cc[n+](CCC(=O)O)nc2)ccn1 [Compound A210] | – | – | – | – | – | – | – | – | – | 70 | 20 | 10 | 10 | 30 | 20 | 10 | 60 | 10
CCOP(=O)(CCC[n+]1ccc(-c2ncccn2)cn1)OCC [Compound A204] | – | – | – | – | – | – | – | – | – | 10 | 0 | 20 | 0 | 0 | 0 | 0 | 0 | 0
COc1ccc(-c2cc[n+](CCCS(=O)(=O)[O-])nc2)nn1 [Compound A115] | 100 | 30 | 100 | 40 | 60 | 30 | 50 | 30 | 30 | – | – | – | – | – | – | – | – | –
O=S(=O)([O-])CC[n+]1ccc(-c2ncc(C3CC3)cn2)cn1 [Compound A34] | 100 | 60 | 70 | 70 | 70 | 90 | 30 | 60 | 70 | – | – | – | – | – | – | – | – | –
